Results as given in patent US20150164867A1, “METHODS OF IMPROVING LONG-TERM SURVIVAL AND REDUCING HOSPITALIZATION READMISSION RATES FOR SUBJECTS SUFFERING FROM HEPATIC ENCEPHALOPATHY” (Salix Pharmaceuticals, Ltd, priority 2012, published 2015).

What was measured:
[1] = system: compensated cirrhotic patients with SHE; assay: Chart review of daily caloric intake in compensated cirrhotic patients with subclinical hepatic encephalopathy; type: in vivo, human
Source text: The medical charts were reviewed for non-hospitalized patients with compensated cirrhosis with and without the diagnosis of subclinical hepatic encephalopathy. […] All patients were reported to be at baseline Conn score Grade 0-1 HE, and employment status was identified. Information collected included; gender, age, ethnicity, weight/height, exercise and employment status, and daily calorie counts for 14 days. Daily caloric intake was registered with food consumption logs by patients and family. Normal caloric intake was considered at 1600 to 2200 calories/day depending upon dietary requirements. The daily caloric totals were conducted with the Calorie Smart calculator. […] There were 64 patients involved in the study: 29 females, 35 males, age (range 19-68), ethnicity (81% Caucasian, 8% African American, 8% Hispanic, 3% other), and mean MELD 8.5 points (range 6-13). There were no events of occult HE or hospitalizations throughout the review.

[2] = system: patients admitted for overt HE; assay: Chart review of survival outcomes in patients admitted for overt HE; type: in vivo, human; conditions: for Survival Rates, One Year / Survival Rates, Six Months / Survival Rates, Three Years: overt HE patients; for Survival Rates, One Year: one year after discharge; for Survival Rates, Six Months: six months after discharge, RFX 1200 then 1100 mg/day, LAC 30-120 cc/day; for Survival Rates, Three Years: three years after discharge
Source text: The medical charts of outpatient and hospitalized patients admitted for overt HE were examined over a 137-month (about an 11.5-year) window. Information collected included gender, age, ethnicity, post discharge HE management protocol, HE hospitalization number (frequency) and time (days) to transplant or death. […] The lactulose dose (LAC) was 30-120 cc/day, adjusted to acquire two to three loose to soft bowel movements. Time from discharge to death or transplant was reported.
In the study, 185 patients were identified, 106 of which were males, 79 or which were females. The median age was 48.5 years (range: 28-72 years). The ethnic group breakdown was as follows: 66% Caucasian, 12% African American, 18% Hispanic, 4% Other. The mean MELD score was 18.5 points (range: 12-40).

[3] = system: patients admitted for overt HE; assay: Chart review of hospital readmission in cirrhotic patients with overt HE; type: in vivo, human
Source text: The medical charts of outpatient and hospitalized patients admitted for overt HE were examined over a 137-month (about an 11.5-year) window. Information collected included gender, age, ethnicity, MELD score, post discharge HE management protocol, HE hospitalization number (frequency), time to readmission (days) and health insurance coverage. All patients suffering from infection, renal failure, gastrointestinal bleeding or […] were excluded. Group one consisted of patients discharged with lactulose (LAC) treatment. Group two consisted of patients discharged on rifaximin (RFX) treatment. Group three consisted of patients discharged on rifaximin treatment combined with lactulose treatment (RFX/LAC). […] The lactulose dose (LAC) was 30-120 cc/day, adjusted to acquire two to three loose to soft bowel movements. Time from discharge to readmission was measured. All patients were required to have a follow up visit after discharge and maintain family support and employment. Patients were broken down into compliant and non-compliant groups with outpatient follow-up. Eighty-seven (87) patients were identified as compliant, while forty-nine (49) patients were identified as non-compliant. In the compliant group, there were 51 males and 36 females, with an age range of between 32 and 68 years. The ethnic group breakdown for the compliant group was as follows: 66% Caucasian, 14% African American, 17% Hispanic and 3% other. The mean MELD score of the compliant group was 12.5 points (range: 8-17). In the non-compliant group, there were 29 males and 20 females, with an age range of between 28 and 66 years. The ethnic group breakdown for the non-compliant group was as follows: 64% Caucasian, 18% African American and 18% Hispanic. The mean MELD score of the non-compliant group was 11.5 points (range: 6-18).

[4] = system: species of Staphylococcus, Streptococcus, Enterococcus, and Enterobacteriaceae; conditions: in vitro data; cited from earlier work
[5] = relative to lactulose monotherapy or combined therapy

Row | Compound | adverse effect [1] | caloric intake (in words) [1] | Survival Rates, One Year [2] [%] | Survival Rates, Six Months [2] [%] | Survival Rates, Three Years [2] [%] | number of hospital readmissions ([3]; compliant and non-compliant populations, comparison of LAC, RFX, RFX/LAC groups) | short- and long-term survival ([2]; addition of rifaximin, alone or in combination with lactulose, overt HE) | in vitro antibacterial activity [4] | frequency of hospitalizations [3, 5] | time to hospital readmission [3, 5]
1 | OC[C@H]1O[C@@H](O[C@@H]2[C@@H](CO)OC(O)(CO)[C@H]2O)[C@H](O)[C@@H](O)[C@H]1O (mixture of isomers) [LAC, Lactulose] | bowel bloating culminating in a sensation of decreased appetite | marked decrease | 46 | 60 | 29 | highest |  |  |  | 
2 | CO[C@H]1/C=C/O[C@@]2(C)Oc3c(C)c(O)c4c(O)c(c5c(nc6cc(C)ccn65)c4c3C2=O)NC(=O)/C(C)=C\C=C\[C@H](C)[C@H](O)[C@@H](C)[C@@H](O)[C@@H](C)[C@H](OC(C)=O)[C@@H]1C [RFX, Rifaximin] |  | appeared to maintain daily caloric intake | 63 | 76 | 51 |  | improvement | active | less frequent | greater
